According to PubChem BioAssay (NCI):
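Method: 48-hour compound exposure of cells in 96-well plates, five concentrations, linear interpolation of endpoints. Abbreviation: GI50, concentration required for 50% inhibition of growth. TGI is the concentration that stops growth completely.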

Tests used:
Test in all cases: DTP human tumour cell line panel, 48 h
[1] = system: ACHN renal
[2] = system: SW-620 colon
[3] = system: HOP-62 NSCLC
[4] = system: HOP-92 NSCLC
[5] = system: 786-0 renal
[6] = system: SF-268 CNS
[7] = system: MCF7 breast
[8] = system: PC-3 prostate
[9] = system: MDA-MB-231 breast

Compound	TGI [1] [µM]	TGI [2] [µM]	TGI [3] [µM]	TGI [4] [µM]	TGI [5] [µM]	GI50 [1] [µM]	GI50 [2] [µM]	GI50 [6] [µM]	TGI [6] [µM]	GI50 [3] [µM]	GI50 [5] [µM]	TGI [7] [µM]	GI50 [7] [µM]	GI50 [4] [µM]	GI50 [8] [µM]	TGI [8] [µM]	GI50 [9] [µM]	TGI [9] [µM]
CCOC(=O)NC(=O)c1cn(CCCCCCCCCCC(=O)N2CCN(CCn3cc(C(=O)NC(=O)OCC)c(=O)[nH]c3=O)CC2)c(=O)[nH]c1=O	> 100	> 100	> 100	> 100	> 100	–	–	–	–	–	–	–	–	–	–	–	–	–
CCC[CH2][Sn]([CH2]CCC)([O]C(=O)c1cc(OC)c(OC)c(OC)c1)[O]C(=O)c1cc(OC)c(OC)c(OC)c1	2.98	2.72	3.45	–	2.57	1.59	0.973	1.21	2.48	2.01	1.29	–	–	–	–	–	–	–
CCOC(=O)/C(=C/c1cc(OC)ccc1OC)CC(=O)O	> 100	> 100	–	> 100	> 31.6	–	–	–	> 100	–	–	–	–	–	–	–	–	–
OCC1OC(n2ccc3cnccc32)CC1O (stereo unspecified)	> 100	> 100	> 100	> 100	> 100	–	–	–	–	–	–	–	–	–	–	–	–	–
Cc1c(NC(=O)CCCl)c(=O)oc2c(C)c3occc(=O)c3cc12	> 100	> 100	> 100	> 100	> 100	–	–	–	> 100	–	–	> 100	–	–	–	–	–	–
CCCCCCCCC(=O)CCCCCCCCC(=O)O	59.8	> 100	66.6	35.2	64.3	–	–	–	> 100	–	–	–	–	–	–	–	–	–
C[CH2][Sn]1([CH2]C)[O]C2C(O)OC(CO)C(O)C2[O]1 (stereo unspecified)	> 100	46.4	> 100	47	68.1	40.3	20.2	39.4	> 100	> 100	23	79.5	25.4	20	> 100	> 100	14.4	28.6
COC(=O)C1C(=O)O[C@@H](c2ccc(OC)cc2)C1C(=O)OC (stereo partly specified)	> 100	> 100	> 100	> 100	> 100	–	–	–	> 100	–	–	–	–	–	–	–	–	–
C=CCOC1=C2CC[C@H](O)[C@@]2(C)CCC1=O	> 100	> 100	> 100	> 100	> 100	–	–	–	> 100	–	–	–	–	–	–	–	–	–
CC1C(=O)CCC1C(Sc1ccccc1)(Sc1ccccc1)Sc1ccccc1 (stereo unspecified)	> 100	> 100	> 100	81.8	> 100	–	–	–	46.3	–	–	–	–	–	–	–	–	–
COC(=O)C1C2CC3C(OC(=O)C31)C2I (stereo unspecified)	> 100	> 100	> 100	> 100	> 100	–	–	–	> 100	–	–	–	–	–	–	–	–	–
O=S1Cc2ccccc2CS1 (stereo unspecified)	> 100	27.1	–	34.1	29.2	–	–	–	> 100	–	–	–	–	–	–	–	–	–
S=C1CNC(=S)CN1	> 100	> 100	> 100	> 100	> 100	–	–	–	> 100	–	–	–	–	–	–	–	–	–
Cc1ccc(NC(=O)C2C(=O)C(=O)N(c3ccc(C)cc3)C2=O)cc1 (stereo unspecified)	> 100	> 100	> 100	> 100	> 100	–	–	–	> 100	–	–	–	–	–	–	–	–	–
c1ccc2c(c1)nnn1c3cnccc3nc21	> 100	> 100	> 100	67	> 100	–	–	–	> 100	–	–	–	–	–	–	–	–	–
COC(=O)C(=C\Sc1ccccc1)/C=C/C(=O)OC(C)(C)C	17.2	12.4	34.8	13.3	10.9	–	–	–	31.8	–	–	–	–	–	–	–	–	–
O=C(/C=C/c1ccccc1O)c1ccccc1	24.2	3.72	52.7	23	29.7	11	1.8	6.34	21.2	17.2	14.4	5.69	1.34	8.77	7.13	41.6	12.8	29.9
CCC1(O)C(=O)OCc2c1cc1n(c2=O)Cc2c-1nc1ccccc1c2OC (stereo unspecified)	0.06	29	< 0.01	3.57	0.0249	–	–	–	2.31	–	–	–	–	–	–	–	–	–
COC1OC(COCc2ccc(Cl)cc2)C(OCc2ccc(Cl)cc2)C1O (stereo unspecified)	40.2	29.6	32.1	25.1	30.8	–	–	–	35.5	–	–	–	–	–	–	–	–	–
CCOC(=O)CC(=O)N(c1ccc(OC)cc1)C(C(=O)OC)c1ccccc1 (stereo unspecified)	> 100	> 100	> 100	–	> 100	–	–	–	> 100	–	–	> 100	–	–	–	> 100	–	–
CC12Oc3ccc4ccccc4c3C1c1c(ccc3ccccc13)O2 (stereo unspecified)	> 100	> 100	–	> 100	> 100	–	–	–	> 100	–	–	–	–	–	–	–	–	–
Cn1c(O)c(C=N)c(=O)n(C)c1=O	> 100	> 100	–	> 100	> 100	–	–	–	> 100	–	–	–	–	–	–	–	–	–
